Results published in US20040138188A1, “Use of TGF-beta inhibitors to counteract pathologic changes in the level or function of steroid/thyroid receptors” (priority 2002, published 2004).

How the values were obtained:
Type in all cases: cell-based
[1] = system: steroid/thyroid receptors; assay: cDNA microarray, TGFβ1-induced down-regulation of steroid/thyroid receptors in human lung fibroblasts; details: 5 ng/ml TGFβ1
Experimental: Human lung fibroblasts (Cambrex Bio Science) from a person were seeded at 4×10^5 cells (passage 4) in 100 mm dishes and cultured in complete FGM medium (Cambrex Bio Science). The next day, medium was changed to FGM without serum or fibroblast growth factor, but supplemented with 0.2% bovine serum albumin and 50 μg/m; Vitamin C. Cells were serum deprived for 24 hours prior to treating with 5 ng/ml TGFβ1 (R&D Systems) in the presence or absence of 400 nM Compound No. 79. Induction with TGFβ was carried out for various times (7.5 hours, 24 hours, and 3 days) after which RNA was harvested by lysing the cells in RLT buffer (Qiagen) and frozen at −80° C.
(§1) Gene expression profiles were determined from cDNA microarrays containing approximately 9000 elements derived from clones isolated from normalized cDNA libraries or purchased from ResGen (Invitrogen Life Technologies, Carlsbad, Calif.). […]
(§2) Total RNA was extracted from cells using Qiagen's RNeasy kit. […] Hybridization of each fluorophore was quantified using an Axon GenePix 4000A scanner.
Differential expression values were expressed as the ratio of the median of background-subtracted fluorescent intensity of the experimental RNA to the median of background-subtracted fluorescent intensity of the control RNA. For ratios greater than or equal to 1.0, the ratio was expressed as a positive value. […]

glucocorticoid receptor [2] = assay: cDNA microarray, TGFβ1-induced down-regulation of glucocorticoid receptor in normal rat kidney cells (NRK); details: 5 ng/ml huTGF-b1, 24 hours
Experimental: Normal rat kidney cells (NRK) were cultured in DMEM-21 (high glucose)/10% FCS at 37° C., 5% CO2. Cells were serum starved for 24 hr before treated with 5 ng/ml huTGF-b1 (R&D System) or co-treatment with 1 μM Compound No. 81 or 0.1 μM Compound No. 74 for 24 hours.
Gene expression profiles were determined from cDNA microarrays containing approximately 9000 elements derived from clones isolated from normalized cDNA libraries or purchased from ResGen (Invitrogen Life Technologies, Carlsbad, Calif.). DNA for spotting was generated by PCR amplification using 5′amino-modified primers (BD Biosciences Clontech, Palo Alto, Calif.) derived from flanking vector sequences. […]
as §2
(§3) Differential expression values were expressed as the ratio of the median of background-subtracted fluorescent intensity of the experimental RNA to the median of background-subtracted fluorescent intensity of the control RNA. For ratios greater than or equal to 1.0, the ratio was expressed as a positive value. For ratios less than 1.0, the ratio was expressed as the negative reciprocal (i.e., a ratio of 0.5=−2.0). […] Differential expression ratios were determined as the mean of the two values from dye-swapped duplicates. […]

glucocorticoid receptor [3] = assay: cDNA microarray, TGFβ1-induced down-regulation of glucocorticoid receptor in rat lung fibroblasts (RLF); details: 15 ng/ml TGFβ1, 24 hours
Experimental: Rat lung fibroblasts (RLF) were isolated from perfused rat lung by physical and enzymatic dissociation of lung tissue. […] RLFs were cultured in FGM-2 with 2% FBS (Clonetics # CC-3132). Cells were serum starved for 24 hours, followed by the treatment with 15 ng/ml TGFβ1 (R&D System) or co-treatment with 1 μM Compound No. 81 or 0.1 μM Compound No. 74 for 24 hours.
as §1, §2, §3

For “TGF-β1: huTGF-b1 (R&D System), transforming growth factor-beta 1, used to induce receptor down-regulation”, the “expression of seven members of the steroid nuclear receptor family, including glucocorticoid receptor and retinoid receptor C alpha” value [1] was “down-regulates”, the “down-regulation of glucocorticoid receptor expression at the transcriptional level” value (glucocorticoid receptor [2]) was 2 fold and the “down-regulation of glucocorticoid receptor expression at the transcriptional level” value (glucocorticoid receptor [3]) was 2 fold.
